One assay concerns SW-620 cells. The assay is described as follows: Human Colon Carcinoma Clonogenic Assay, SW-620. In kind it is cell-based. Particulars: SW-620, 2 days with drug, colonies after approximately 2 weeks. As to the method:
(§1) Human Colon Carcinoma Clonozenic Assay. Human colon carcinoma cells are seeded into 6 well plates in volumes of 3 mL and allowed to incubate overnight (37° C., 5% CO2, 95% air). SW-620 cells are seeded at 7×10^5 per well; HCT-8 cells are seeded at 5×10^5 per well; HT-29 cells are seeded at 4×10^5 cells per well. Serially diluted drugs are prepared at 200 times the final concentration, and 15 μL are added to each of duplicate wells. Cells are incubated with drug for 2 days, rinsed once with 1 mL of trypsin+EDTA, and then trypsinized with the same trypsin solution. After trituration and centrifugation at 750×g for 3 minutes, the cells are suspended in serum-free growth medium and counted using an electronic particle counter. An agarose mixture appropriate for the cloning of each cell line is made using 10% fetal bovine serum in growth medium (SW-620-0.35% agarose, HCT-8 and HT-29-0.4% agarose). […] One; milliliter of each of these cell suspensions is added to duplicate wells of 6 well plates previously prepared with 10% serum/growth medium/1% agarose plugs. The cells in these plates are incubated for approximately 2 weeks in the incubator and stained with 1 mL per well of 1 mg/mL iodonitrotetrazolium violet stain. The visible colonies are counted with an electronic optical colony counter and the clonogenicity of treated cells calculated in comparison to untreated control cells.

For the next assay, the target named is T1, c-Src (Homo sapiens, UniProt P12931).
T1 construct: made in house; host or cells: baculovirus infected insect cells
T1 sequence (P12931 whole entry, species assumed): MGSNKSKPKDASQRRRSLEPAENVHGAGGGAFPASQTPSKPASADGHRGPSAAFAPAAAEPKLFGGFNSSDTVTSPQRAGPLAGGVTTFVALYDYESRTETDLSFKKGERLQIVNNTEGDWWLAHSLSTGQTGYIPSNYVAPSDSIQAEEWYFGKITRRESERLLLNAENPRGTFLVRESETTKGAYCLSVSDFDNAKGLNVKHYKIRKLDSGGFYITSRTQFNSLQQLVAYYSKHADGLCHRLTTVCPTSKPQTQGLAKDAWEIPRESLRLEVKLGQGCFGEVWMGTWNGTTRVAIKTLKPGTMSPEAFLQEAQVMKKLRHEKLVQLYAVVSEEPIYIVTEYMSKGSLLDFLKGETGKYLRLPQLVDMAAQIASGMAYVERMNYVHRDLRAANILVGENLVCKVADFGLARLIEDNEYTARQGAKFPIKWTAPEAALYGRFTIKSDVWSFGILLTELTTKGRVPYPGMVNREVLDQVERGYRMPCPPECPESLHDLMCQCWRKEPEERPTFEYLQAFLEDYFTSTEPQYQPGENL
The assay is described as follows: c-Src kinase assay, 32P incorporation into polyglutamate-tyrosine. Type of assay: biochemical. The note with it: 5 μM ATP. As to the method:
(§2) Other Kinases. c-Src kinase is purified from baculovirus infected insect cell lysates using an antipeptide monoclonal antibody directed against the N-terminal 2-17 amino acids as described previously by Fry, et al., Anticancer Drug Design, 1994;9:331-351. Protein kinase C (PKC.) is obtained as a rat brain preparation from Promega.
c-Src. The antibody, covalently linked to 0.65-μm latex beads, is added to a suspension of insect cell lysis buffer comprised of 150 mM NaCl, 50 mM Tris pH 7.5, 1 mM DTT, 1% NP-40, 2 mM EGTA, 1 mM sodium vanadate, 1 mM PMSF, 1 μg/mL each of leupeptin, pepstatin, and aprotinin. Insect cell lysate containing the c-Src protein is incubated with these beads for 3 to 4 hours at 4° C. with rotation. At the end of the lysate incubation, the beads are rinsed three times in lysis buffer, resuspended in lysis buffer containing 10% glycerol, and frozen. These latex beads are thawed, rinsed three times in assay buffer which is comprised of 40 mM tris pH 7.5, 5 mM magnesium chloride, and suspended in the same buffer. In a Millipore 96-well plate with a 0.65 μm polyvinylidine membrane bottom are added the reaction components: 10-μL c-Src beads, 10 μL of 2.5 mg/mL polyglutamate-tyrosine substrate, 5 μM ATP containing 0.2 μCi labeled ^32 P-ATP, 5 μL DMSO containing inhibitors or as a solvent control, and buffer to make the final volume 125 μL. The reaction is started at room temperature by addition of the ATP and quenched 10 minutes later by the addition of 125 μL of 30% TCA, 0.1 M sodium pyrophosphate for 15 minutes on ice. The plate is then filtered and the wells washed with two 250-μL aliquots of 15% TCA, 0.1 M pyrophosphate. The filters are punched, counted in a liquid scintillation counter, and the data examined for inhibitory activity in comparison to a known inhibitor such as erbstatin. The method is described more fully in J. Med. Chem., 1994;37:598-609.

The target of the next assay is T2, insulin receptor (INSr) (Homo sapiens, UniProt P06213).
T2 construct: An assay using the intracellular kinase domains of insulin receptor (INSr)
T2 sequence (P06213 1023-1298 limits assumed, species assumed): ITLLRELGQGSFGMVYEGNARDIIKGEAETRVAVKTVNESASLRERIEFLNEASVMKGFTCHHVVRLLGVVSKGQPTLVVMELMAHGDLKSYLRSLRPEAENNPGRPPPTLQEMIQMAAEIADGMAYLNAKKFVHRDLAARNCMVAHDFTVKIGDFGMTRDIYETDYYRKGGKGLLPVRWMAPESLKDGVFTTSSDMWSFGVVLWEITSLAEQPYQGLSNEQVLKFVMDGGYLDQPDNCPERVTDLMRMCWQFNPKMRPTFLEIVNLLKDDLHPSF
The assay is described as follows: Insulin receptor (INSr) kinase assay. Type of assay: biochemical. Particulars: 10 mM manganese chloride. As to the method: EGFr. Enzyme assays for IC50 determinations are performed in 96-well filter plates (Millipore MADVN6550). The total volume is 0.1 mL containing 20 mM Hepes, pH 7.4, 50 μM sodium vanadate, 40 mM magnesium chloride, 10 μM ATP containing 0.5 μCi of [^32 P]ATP, 20 μg of polyglutamic acid/tyrosine (Sigma Chemical Co., St. Louis, Mo.), 10 ng of EGF receptor tyrosine kinase and appropriate dilutions of inhibitor. All components except the ATP are added to the well, and the plate is incubated with shaking for 10 minutes at 25° C. The reaction is started by adding [^32 P]ATP, and the plate is incubated at 25° C. for 10 minutes. The reaction is terminated by addition of 0.1 mL of 20% trichloroacetic acid (TCA). The plate is kept at 4° C. for at least 15 minutes to allow the substrate to precipitate. The wells are then washed five times with 0.2 mL of 10% TCA, and ^32 P incorporation is determined with a Wallac beta plate counter.
(§3) Other Kinases. An assay using the intracellular kinase domains of insulin receptor (INSr) is performed as described for the EGF receptor except that 10 mM manganese chloride is included in the reaction. The PKC assay is performed as previously described by Martiny-Baron, et al., J. Biol. Chem., 1993;268:9194-9197.

Assay [1] relates to HCT-8 cells. The assay is described as follows: Human Colon Carcinoma Growth Delay Assay, HCT-8. The note with it: 72 h, HCT-8, 3 days. Type of assay: cell-based. As to the method: Human Colon Carcinoma Growth Delay Assay. Human colon carcinoma cells are seeded into 96-well tissue culture plates in a final volume of 180 μL of 10% fetal bovine serum containing growth media and allowed to incubate overnight (37° C., 5% CO2, 95% air). Cells of the SW-620 cell line are seeded at 1.0-1.5×10^4 cells per well. Cells of the HCT-8 and HT-29 cell lines are seeded at 2-4×10^3 cells per well. Serially diluted drug solutions are prepared in growth medium at 10 times concentration; 20 μL of these solutions are added to duplicate wells and incubated with the cells for 3 days in a cell culture incubator. At the end of the incubation period, cells are fixed with 100 μL per well of 10% trichloroacetic acid after removing the drug/culture medium. The plates are washed five times with tap water and stained with 100 μL per well of 0.075% sulfrhodamine B in 1% acetic acid for 10 minutes. The plates are rinsed four times and allowed to air dry. The stain in the wells are solubilized by the addition of 10 mM unbuffered Tris base and the absorbance read using a microtiter plate optical reader. Inhibition of cell growth is calculated from absorbance data of the treated cells compared to untreated control cells.

In assay [2] the test system is HCT-8 cells. The assay is described as follows: Human Colon Carcinoma Clonogenic Assay, HCT-8. In kind it is cell-based. Particulars: HCT-8, 2 days with drug, colonies after approximately 2 weeks. As to the method:
as §1

The next assay deals with Protein kinase C (PKC). The assay is described as follows: Protein kinase C (PKC) assay. Type of assay: biochemical. The note with it: rat brain preparation. As to the method:
as §2, §3

The structures appear in SMILES notation.

Our source for the IC50 values is patent US6150359A, “Naphthyridinones for inhibiting protein tyrosine kinase and cell cycle kinase mediated cellular proliferation” (Warner-Lambert Company, priority 2000, dated 2000).

Regarding `CCN(CC)CCCCNc1cc2c(cn1)cc(-c1c(Cl)cccc1Cl)c(=O)n2C` [Example F, 3-(2,6-dichlorophenyl)-7-[4-(diethylamino)butylamino]-1-methyl-1H-[1,6]naphthyridin-2-one], the IC50 in the assay on SW-620 cells was over 5000 nM; against c-Src, 40 nM; against insulin receptor (INSr) it was over 50000 nM; in the assay with HCT-8 cells [1], 2300 nM; with HCT-8 cells [2] it was over 5000 nM; against Protein kinase C (PKC), over 50000 nM.
As to `CN1CCN(CCCNc2cc3c(cn2)cc(-c2c(Cl)cccc2Cl)c(=O)n3C)CC1` [Example H, 3-(2,6-dichlorophenyl)-1-methyl-7-[3-(4-methylpiperazin-1-yl)propylamino]-1H-[1,6]naphthyridin-2-one], the half-maximal inhibitory concentration (IC50) at c-Src is 60 nM; against insulin receptor (INSr) it was over 50000 nM; in the assay with HCT-8 cells [1], 2800 nM; in the assay with HCT-8 cells [2], over 5000 nM; against Protein kinase C (PKC), under 50000 nM.
With `CCN(CC)CCOc1ccc(Nc2cc3c(cn2)cc(-c2c(Cl)cccc2Cl)c(=O)n3C)cc1` [Example P, 3-(2,6-dichlorophenyl)-7-[(4-(2-(diethylamino)ethoxy)phenyl)amino]-1-methyl-1H-[1,6]naphthyridin-2-one], the IC50 on c-Src was 80 nM; on insulin receptor (INSr) it was over 50000 nM; in the assay on HCT-8 cells [1], 2800 nM; in the assay with HCT-8 cells [2], over 5000 nM; on Protein kinase C (PKC) it was over 50000 nM.
Turning to `CN1CCN(CCOc2ccc(Nc3cc4c(cn3)cc(-c3c(Cl)cccc3Cl)c(=O)n4C)cc2)CC1` [Example S, 3-(2,6-dichlorophenyl)-1-methyl-7-[(4-(2-(4-methylpiperazin-1-yl)ethoxy)phenyl)amino]-1H-[1,6]naphthyridin-2-one], the IC50 in the assay with SW-620 cells was found to be 2800 nM; at c-Src, 20 nM; in the assay with HCT-8 cells [1], 5200 nM.
